Data published in patent US11820773B2, “Tricyclic compounds” (ALIGOS THERAPEUTICS, INC., priority 2020, dated 2023).

Test system: HBV
Assay: HBV-DNA antiviral assay using HepG2.117 cells (intracellular HBV DNA by qPCR)
Type: cell-based, genotype D HBV
Conditions: Hepatitis B virus, 72 h, HBV DNA inhibition, 3 days incubation, 2% DMSO
Summary of the method: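 Endpoints are intracellular HBV DNA by qPCR (interpolated from a gBlock standard curve) and ATP-based viability in duplicate plates. Doxycycline-free HepG2.117 Tet-off cells received compounds (9 concentrations, 4-fold steps, 2% DMSO) for 3 days. Inhibition normalised to DMSO wells; EC50/EC90/CC50 by curve fitting.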

Row | Compound | EC50 [nM]
1 | CC[C@H]1Cc2c(n3ncc(Cc4ccccc4)c3n(-c3ccc4c(NC)n[nH]c4c3)c2=O)CN1C(=O)c1ccc(Br)c(C(F)(F)F)c1 (stereo in doubt) [Compound 84b, rac-(11S)-5-benzyl-12-[4-bromo-3-(trifluoromethyl)benzoyl]-11-ethyl-7-[3-(methylamino)-1H-indazol-6-yl]-2,3,7,12-tetrazatricyclo[7.4.0.0^2,6]trideca-1(9),3,5-trien-8-one] | < 50
2 | CNC(=O)c1cnc(-n2c(=O)c3c(n4ncc(CC(C)C)c24)CN(C(=O)c2ccc(Br)c(C(F)(F)F)c2)[C@H](C)C3)nc1 (stereo in doubt) [Compound 85a, N-methyl-2-[rac-(11R)-12-[4-bromo-3-(trifluoromethyl)benzoyl]-5-isobutyl-11-methyl-8-oxo-2,3,7,12-tetrazatricyclo[7.4.0.0^2,6]trideca-1(9),3,5-trien-7-yl]pyrimidine-5-carboxamide] | < 50
3 | CNC(=O)c1cnc(-n2c(=O)c3c(n4ncc(CC(C)C)c24)CN(C(=O)c2ccc(Br)c(C(F)(F)F)c2)[C@@H](C)C3)nc1 (stereo in doubt) [Compound 85b, N-methyl-2-[rac-(11S)-12-[4-bromo-3-(trifluoromethyl)benzoyl]-5-isobutyl-11-methyl-8-oxo-2,3,7,12-tetrazatricyclo[7.4.0.0^2,6]trideca-1(9),3,5-trien-7-yl]pyrimidine-5-carboxamide] | < 50
4 | CC(C)Cc1cnn2c3c(c(=O)n(-c4ccc5c(c4)ncn5C)c12)C[C@@H](C)N(C(=O)c1ccc(Br)c(C(F)(F)F)c1)C3 (stereo in doubt) [Compound 86a, rac-(11R)-12-[4-bromo-3-(trifluoromethyl)benzoyl]-5-isobutyl-11-methyl-7-(1-methylbenzimidazol-5-yl)-2,3,7,12-tetrazatricyclo[7.4.0.0^2,6]trideca-1(9),3,5-trien-8-one] | < 50
5 | CC(C)Cc1cnn2c3c(c(=O)n(-c4ccc5c(c4)ncn5C)c12)C[C@H](C)N(C(=O)c1ccc(Br)c(C(F)(F)F)c1)C3 (stereo in doubt) [Compound 86b, rac-(11S)-12-[4-bromo-3-(trifluoromethyl)benzoyl]-5-isobutyl-11-methyl-7-(1-methylbenzimidazol-5-yl)-2,3,7,12-tetrazatricyclo[7.4.0.0^2,6]trideca-1(9),3,5-trien-8-one] | 50 to 500
6 | CCC[C@@H]1Cc2c(n3ncc(Cc4ccccc4)c3n(-c3ccc4c(NC)n[nH]c4c3)c2=O)CN1C(=O)c1ccc(Br)c(C(F)(F)F)c1 (stereo in doubt) [Compound 88a, rac-(11R)-5-benzyl-12-[4-bromo-3-(trifluoromethyl)benzoyl]-7-[3-(methylamino)-1H-indazol-6-yl]-11-propyl-2,3,7,12-tetrazatricyclo[7.4.0.0^2,6]trideca-1(9),3,5-trien-8-one] | < 50
7 | CCC[C@H]1Cc2c(n3ncc(Cc4ccccc4)c3n(-c3ccc4c(NC)n[nH]c4c3)c2=O)CN1C(=O)c1ccc(Br)c(C(F)(F)F)c1 (stereo in doubt) [Compound 88b, rac-(11S)-5-benzyl-12-[4-bromo-3-(trifluoromethyl)benzoyl]-7-[3-(methylamino)-1H-indazol-6-yl]-11-propyl-2,3,7,12-tetrazatricyclo[7.4.0.0^2,6]trideca-1(9),3,5-trien-8-one] | < 50
8 | CNC(=O)c1cnc(-n2c(=O)c3c(n4ncc(CC(C)C)c24)CN(C(=O)c2ccc(Br)c(C(F)(F)F)c2)[C@H](C)C3)cn1 (stereo in doubt) [Compound 89a, N-methyl-5-[rac-(11R)-12-[4-bromo-3-(trifluoromethyl)benzoyl]-5-isobutyl-11-methyl-8-oxo-2,3,7,12-tetrazatricyclo[7.4.0.0^2,6]trideca-1(9),3,5-trien-7-yl]pyrazine-2-carboxamide] | < 50
9 | CNC(=O)c1cnc(-n2c(=O)c3c(n4ncc(CC(C)C)c24)CN(C(=O)c2ccc(Br)c(C(F)(F)F)c2)[C@@H](C)C3)cn1 (stereo in doubt) [Compound 89b, [rac-(11S)-12-[4-bromo-3-(trifluoromethyl)benzoyl]-5-isobutyl-11-methyl-8-oxo-2,3,7,12-tetrazatricyclo[7.4.0.0^2,6]trideca-1(9),3,5-trien-7-yl]pyrazine-2-carboxamide] | 50 to 500
10 | C[C@H]1Cc2c(n3ncc(CC4CC4)c3n(-c3ccc(C(=O)N(C)CO)cc3)c2=O)CN1C(=O)c1ccc(Br)c(C(F)(F)F)c1 (stereo in doubt) [Compound 91, N-(hydroxymethyl)-N-methyl-4-[rac-(11S)-12-[4-bromo-3-(trifluoromethyl)benzoyl]-5-(cyclopropylmethyl)-11-methyl-8-oxo-2,3,7,12-tetrazatricyclo[7.4.0.0^2,6]trideca-1 (9),3,5-trien-7-yl]benzamide] | > 5000
11 | C[C@@H]1Cc2c(n3ncc(Cc4ccccc4)c3n(-c3ccc(-n4nnnc4C(F)(F)F)cc3)c2=O)CN1C(=O)c1ccc(Br)c(C(F)(F)F)c1 (stereo in doubt) [Compound 92a, rac-(11R)-5-benzyl-12-[4-bromo-3-(trifluoromethyl)benzoyl]-11-methyl-7-[4-[5-(trifluoromethyl)tetrazol-1-yl]phenyl]-2,3,7,12-tetrazatricyclo[7.4.0.0^2,6]trideca-1(9),3,5-trien-8-one] | < 50
12 | C[C@H]1Cc2c(n3ncc(Cc4ccccc4)c3n(-c3ccc(-n4nnnc4C(F)(F)F)cc3)c2=O)CN1C(=O)c1ccc(Br)c(C(F)(F)F)c1 (stereo in doubt) [Compound 92b, rac-(11S)-5-benzyl-12-[4-bromo-3-(trifluoromethyl)benzoyl]-11-methyl-7-[4-[5-(trifluoromethyl)tetrazol-1-yl]phenyl]-2,3,7,12-tetrazatricyclo[7.4.0.0^2,6]trideca-1(9),3,5-trien-8-one] | > 5000
13 | C[C@@H]1Cc2c(n3ncc(CC4CC4)c3n(-c3ccc(-c4nc(=O)on4C)cc3)c2=O)CN1C(=O)c1ccc(Br)c(C(F)(F)F)c1 (stereo in doubt) [Compound 93a, 2-methyl-3-[4-[rac-(11R)-12-[4-bromo-3-(trifluoromethyl)benzoyl]-5-(cyclopropylmethyl)-11-methyl-8-oxo-2,3,7,12-tetrazatricyclo[7.4.0.0^2,6]trideca-1(9),3,5-trien-7-yl]phenyl]-1,2,4-oxadiazol-5-one] | < 50
14 | C[C@H]1Cc2c(n3ncc(CC4CC4)c3n(-c3ccc(-c4nc(=O)on4C)cc3)c2=O)CN1C(=O)c1ccc(Br)c(C(F)(F)F)c1 (stereo in doubt) [Compound 93b, 2-methyl-3-[4-[rac-(11S)-12-[4-bromo-3-(trifluoromethyl)benzoyl]-5-(cyclopropylmethyl)-11-methyl-8-oxo-2,3,7,12-tetrazatricyclo[7.4.0.0^2,6]trideca-1(9),3,5-trien-7-yl]phenyl]-1,2,4-oxadiazol-5-one] | < 50
15 | CC(C)Cc1cnn2c3c(c(=O)n(-c4ccc(-c5nc(=O)on5C)cc4)c12)C[C@@H](C)N(C(=O)c1ccc(Br)c(C(F)(F)F)c1)C3 (stereo in doubt) [Compound 94a, 2-methyl-3-[4-[rac-(11R)-12-[4-bromo-3-(trifluoromethyl)benzoyl]-5-isobutyl-11-methyl-8-oxo-2,3,7,12-tetrazatricyclo[7.4.0.0^2,6]trideca-1(9),3,5-trien-7-yl]phenyl]-1,2,4-oxadiazol-5-one] | < 50
16 | CC(C)Cc1cnn2c3c(c(=O)n(-c4ccc(-c5nc(=O)on5C)cc4)c12)C[C@H](C)N(C(=O)c1ccc(Br)c(C(F)(F)F)c1)C3 (stereo in doubt) [Compound 94b, 2-methyl-3-[4-[rac-(11S)-12-[4-bromo-3-(trifluoromethyl)benzoyl]-5-isobutyl-11-methyl-8-oxo-2,3,7,12-tetrazatricyclo[7.4.0.0^2,6]trideca-1(9),3,5-trien-7-yl]phenyl]-1,2,4-oxadiazol-5-one] | 50 to 500
17 | CC(C)Cc1cnn2c3c(c(=O)n(-c4ccc5c(c4)nnn5C)c12)C[C@@H](C)N(C(=O)c1ccc(Br)c(C(F)(F)F)c1)C3 (stereo in doubt) [Compound 95a, rac-(11R)-12-[4-bromo-3-(trifluoromethyl)benzoyl]-5-isobutyl-11-methyl-7-(1-methylbenzotriazol-5-yl)-2,3,7,12-tetrazatricyclo[7.4.0.0^2,6]trideca-1(9),3,5-trien-8-one] | < 50
18 | CC(C)Cc1cnn2c3c(c(=O)n(-c4ccc5c(c4)nnn5C)c12)C[C@H](C)N(C(=O)c1ccc(Br)c(C(F)(F)F)c1)C3 (stereo in doubt) [Compound 95b, rac-(11S)-12-[4-bromo-3-(trifluoromethyl)benzoyl]-5-isobutyl-11-methyl-7-(1-methylbenzotriazol-5-yl)-2,3,7,12-tetrazatricyclo[7.4.0.0^2,6]trideca-1(9),3,5-trien-8-one] | 50 to 500
19 | Cc1cnn(-c2ccc(-n3c(=O)c4c(n5ncc(CC(C)C)c35)CN(C(=O)c3ccc(Br)c(C(F)(F)F)c3)[C@H](C)C4)cc2)c1 (stereo in doubt) [Compound 98a, rac-(11R)-12-[4-bromo-3-(trifluoromethyl)benzoyl]-5-isobutyl-11-methyl-7-[4-(4-methylpyrazol-1-yl)phenyl]-2,3,7,12-tetrazatricyclo[7.4.0.0^2,6]trideca-1(9),3,5-trien-8-one] | < 50
20 | Cc1cnn(-c2ccc(-n3c(=O)c4c(n5ncc(CC(C)C)c35)CN(C(=O)c3ccc(Br)c(C(F)(F)F)c3)[C@@H](C)C4)cc2)c1 (stereo in doubt) [Compound 98b, rac-(11S)-12-[4-bromo-3-(trifluoromethyl)benzoyl]-5-isobutyl-11-methyl-7-[4-(4-methylpyrazol-1-yl)phenyl]-2,3,7,12-tetrazatricyclo[7.4.0.0^2,6]trideca-1(9),3,5-trien-8-one] | 50 to 500
21 | Cc1cnn(-c2ccc(-n3c(=O)c4c(n5ncc(CC(C)C)c35)CN(C(=O)c3ccc(Br)c(C(F)(F)F)c3)[C@H](C)C4)cc2)n1 (stereo in doubt) [Compound 99a, rac-(11R)-12-[4-bromo-3-(trifluoromethyl)benzoyl]-5-isobutyl-11-methyl-7-[4-(4-methyltriazol-2-yl)phenyl]-2,3,7,12-tetrazatricyclo[7.4.0.0^2,6]trideca-1(9),3,5-trien-8-one] | < 50
